Experimental data from patent publication US20220264878A1, “HERBICIDAL COMPOSITION CONTAINING R-TYPE PYRIDYLOXY CARBOXYLIC ACID DERIVATIVE AND USE THEREOF” (Qingdao Kingagroot Chemical Compound Co., Ltd., priority 2019, published 2022).
Read-outs that look alike come from different tables or passages of the source.

Key:
Echinochloa oryzoides = test: Post-emergence foliage spray, pot culture, fresh weight inhibition (Tables 1-48, 51-98, 101-148; 24 days); assay type: in vivo
Protocol: (§1) The above weeds were cultivated by a pot culture method. […] Full and uniform weed seeds were selected, soaked in warm water at 25° C. for 6 hours, and germinated in a 28° C. biochemical incubator (darkness). The weed seeds that had just germinatedwere evenly placed on the surface of the soil and then covered with 0.5-1 cm soil according to the sizes of seeds.
(§2) The technical materials were all dissolved in acetone, and diluted with an aqueous solution containing 0.1% emulsifier Tween-80. The dilution is performed as required.
(§3) A ratio of the active ingredient A to the active ingredient B and amounts thereof in each group depends on the characteristics and toxicity of the two agents, as well as the main application purpose of a corresponding formulation. Based on the pre-tests in this study, the dosage of the active ingredient A and B applied alone and in combination were shown in the tables. Water containing the solvent and emulsifier same with the above groups but free of the agents was used as a blank control.
(§4) In the stage of weeds with 3˜4 leaves, the weeds were thinned out to maintain 15 weeds per pot and 45 weeds for each treatment, then continued to be cultured to 5˜6 leaves stage of grassy weeds, 6˜7 leaves stage of broadleaf weeds, and treated.
(§5) The well-cultured weeds were evenly placed on a platform with an area of 0.5 m^2, and a solution of agents was sprayed on the stems and leaves thereof by the 3WP-2000-type walking spray tower at a dosage of 450 kg/ha and at a spray pressure of 0.3 MPa. After all the solution was sprayed, the valve was closed. After 30 seconds, the door of the spray tower was opened, and the nutritional bowl was taken out. Then the valve was opened, and the spray tube was cleaned by spraying 50 ml of water.
(§6) A pot-culture method was employed. For the cultivation of weeds, please refer to the Section 1.1), and “Pesticide guidelines for laboratory bioactivity tests—herbicides”. As to a method for applying agents, please refer to the section 2.3.2), that is, a foliage treatment was employed. After the treatment, the weeds were routinely cultured in a greenhouse.
(§7) A method for investigating absolute number was employed, wherein whole seedlings of survival weeds were cut off with a blade along the soil surface, and the fresh weight of the weeds was weighed with an analytical balance. For dead weeds, the fresh weight thereof was zero.
(§8) Wherein, in the formula, X represented the fresh weight inhibition rate of the active ingredient A in a dosage of P, and Y represented the fresh weight inhibition rate of the active ingredient B in a dosage of Q.

Echinochloa caudate = test: as above; assay type: in vivo
Protocol: as §1, §2, §3, §4, §5, §6, §7, §8

[1] = Echinochloa oryzoides, 576 h, read-out: Control effect (%) of B applied alone in corresponding dose
[2] = Echinochloa, 576 h, read-out: Control effect (%) of B applied alone in corresponding dose

For CS(=O)(=O)c1cc(C(F)(F)F)ccc1C(=O)c1cnoc1C1CC1 [isoxaflutole], the pest or weed control at 7.5 g/ha (Echinochloa oryzoides; Echinochloa oryzoides, 576 h, B 7.5 g a.i./ha, read-out: Control effect (%) of B applied alone in corresponding dose) was 8.1%, the pest or weed control at 15 g/ha (Echinochloa oryzoides; Echinochloa oryzoides, 576 h, B 15 g a.i./ha, read-out: Control effect (%) of B applied alone in corresponding dose) was 19.6% and the pest or weed control at 30 g/ha (Echinochloa oryzoides; Echinochloa oryzoides, 576 h, B 30 g a.i./ha, read-out: Control effect (%) of B applied alone in corresponding dose) was 50.6%. It also gave a pest or weed control at 60 g/ha (Echinochloa oryzoides; Echinochloa oryzoides, 576 h, B 60 g a.i./ha, read-out: Control effect (%) of B applied alone in corresponding dose) of 65.5%, a pest or weed control at 7.5 g/ha (Echinochloa caudate; Echinochloa, 576 h, Table 85, 7.5 g a.i./ha, read-out: Control effect (%) of B applied alone in corresponding dose) of 2.1% and a pest or weed control at 15 g/ha (Echinochloa caudate; Echinochloa, 576 h, Table 85, 15 g a.i./ha, read-out: Control effect (%) of B applied alone in corresponding dose) of 14.3%. For the same compound, the pest or weed control at 30 g/ha (Echinochloa caudate; Echinochloa, 576 h, Table 85, 30 g a.i./ha, read-out: Control effect (%) of B applied alone in corresponding dose) was 47.9% and the pest or weed control at 60 g/ha (Echinochloa caudate; Echinochloa, 576 h, Table 85, 60 g a.i./ha, read-out: Control effect (%) of B applied alone in corresponding dose) was 63.6%.
CCC(=O)Nc1ccc(Cl)c(Cl)c1 [propanil] gave a pest or weed control at 75 g/ha (Echinochloa oryzoides; Echinochloa oryzoides, 576 h, B 75 g a.i./ha, read-out: Control effect (%) of B applied alone in corresponding dose) of 7.6%, a pest or weed control at 150 g/ha (Echinochloa oryzoides; Echinochloa oryzoides, 576 h, B 150 g a.i./ha, read-out: Control effect (%) of B applied alone in corresponding dose) of 19.9% and a pest or weed control at 300 g/ha (Echinochloa oryzoides; Echinochloa oryzoides, 576 h, B 300 g a.i./ha, read-out: Control effect (%) of B applied alone in corresponding dose) of 37%. It also gave a pest or weed control at 600 g/ha (Echinochloa oryzoides; Echinochloa oryzoides, 576 h, B 600 g a.i./ha, read-out: Control effect (%) of B applied alone in corresponding dose) of 53.9%, a pest or weed control at 75 g/ha (Echinochloa caudate; Echinochloa, 576 h, propanil 75 g a.i./ha, read-out: Control effect (%) of B applied alone in corresponding dose) of 3.8% and a pest or weed control at 150 g/ha (Echinochloa caudate; Echinochloa, 576 h, propanil 150 g a.i./ha, read-out: Control effect (%) of B applied alone in corresponding dose) of 21.1%. For the same compound, the pest or weed control at 300 g/ha (Echinochloa caudate; Echinochloa, 576 h, propanil 300 g a.i./ha, read-out: Control effect (%) of B applied alone in corresponding dose) was 36.4% and the pest or weed control at 600 g/ha (Echinochloa caudate; Echinochloa, 576 h, propanil 600 g a.i./ha, read-out: Control effect (%) of B applied alone in corresponding dose) was 52.5%.
In the case of COC(=O)[C@@H](C)Oc1ccc(Oc2cnc3cc(Cl)ccc3n2)cc1 [quizalofop-P-methyl], the “Control effect (%) of B applied alone in corresponding dose” value (shortened to “Control effect (%) of B applied alone”) (Echinochloa oryzoides; B 3.75 g a.i./ha) is reported as 5.9%, the “Control effect (%) of B applied alone” value (Echinochloa oryzoides; B 7.5 g a.i./ha) is reported as 14.6% and the “Control effect (%) of B applied alone” value (Echinochloa oryzoides; B 15 g a.i./ha) is reported as 38.6%. The “Control effect (%) of B applied alone” value (Echinochloa oryzoides; B 30 g a.i./ha) was 63.3%, the “Control effect (%) of B applied alone” value (Echinochloa caudate; quizalofop-P-methyl 3.75 g a.i./ha) was 3.4% and the “Control effect (%) of B applied alone” value (Echinochloa caudate; quizalofop-P-methyl 7.5 g a.i./ha) was 12.2%. For the same compound, the “Control effect (%) of B applied alone” value (Echinochloa caudate; quizalofop-P-methyl 15 g a.i./ha) was 40.8% and the “Control effect (%) of B applied alone” value (Echinochloa caudate; quizalofop-P-methyl 30 g a.i./ha) was 72.1%.
CCC/C(=N\OCC)C1=C(O)CC(CC(C)SCC)CC1=O (centres unmarked) [sethoxydim] showed a pest or weed control at 15 g/ha (Echinochloa oryzoides; [1]) of 5.5%, a pest or weed control at 30 g/ha (Echinochloa oryzoides; [1]) of 13.8% and a pest or weed control at 60 g/ha (Echinochloa oryzoides; [1]) of 35.4%. It also gave a pest or weed control at 120 g/ha (Echinochloa oryzoides; [1]) of 68.4%, a pest or weed control at 15 g/ha (Echinochloa caudate; [2]) of 5.1% and a pest or weed control at 30 g/ha (Echinochloa caudate; [2]) of 21.5%. For the same compound, the pest or weed control at 60 g/ha (Echinochloa caudate; [2]) was 42.6% and the pest or weed control at 120 g/ha (Echinochloa caudate; [2]) was 61.6%.
COC(=O)c1ccccc1S(=O)(=O)NC(=O)Nc1nc(C)cc(C)n1 [sulfometuron-methyl] gave a pest or weed control at 9.375 g/ha (Echinochloa oryzoides; [1]) of 3.2%, a pest or weed control at 18.75 g/ha (Echinochloa oryzoides; [1]) of 12.6% and a pest or weed control at 37.5 g/ha (Echinochloa oryzoides; [1]) of 38%. It also gave a pest or weed control at 75 g/ha (Echinochloa oryzoides; [1]) of 53.8%, a pest or weed control at 9.375 g/ha (Echinochloa caudate; [2]) of 3.8% and a pest or weed control at 18.75 g/ha (Echinochloa caudate; [2]) of 13.9%. It also gave a pest or weed control at 37.5 g/ha (Echinochloa caudate; [2]) of 24.6% and a pest or weed control at 75 g/ha (Echinochloa caudate; [2]) of 52.7%.
In the case of CS(=O)(=O)c1ccc(C(=O)C2C(=O)CCCC2=O)c(Cl)c1COCC1CCCO1 (centres unmarked) [tefuryltrione], the “Control effect (%) of B applied alone” value (Echinochloa oryzoides; B 7.5 g a.i./ha) is reported as 8.9%, the “Control effect (%) of B applied alone” value (Echinochloa oryzoides; B 15 g a.i./ha) is reported as 18.8% and the “Control effect (%) of B applied alone” value (Echinochloa oryzoides; B 30 g a.i./ha) is reported as 46.1%. The “Control effect (%) of B applied alone” value (Echinochloa oryzoides; B 60 g a.i./ha) was 69.3%, the “Control effect (%) of B applied alone” value (Echinochloa caudate; Table 81, 7.5 g a.i./ha) was 6.8% and the “Control effect (%) of B applied alone” value (Echinochloa caudate; Table 81, 15 g a.i./ha) was 13.1%. The “Control effect (%) of B applied alone” value (Echinochloa caudate; Table 81, 30 g a.i./ha) was 41.3% and the “Control effect (%) of B applied alone” value (Echinochloa caudate; Table 81, 60 g a.i./ha) was 65.4%.
In the case of Cc1cc(C)n(Cc2c(S(C)(=O)=O)ccc(C(=O)c3c(C)nn(C)c3OC(=O)c3cn(C)nc3C)c2Cl)n1 [tripyrasulfone], the “Control effect (%) of B applied alone” value (Echinochloa oryzoides; B 18.75 g a.i./ha) is reported as 8.9%, the “Control effect (%) of B applied alone” value (Echinochloa oryzoides; B 37.5 g a.i./ha) is reported as 18.0% and the “Control effect (%) of B applied alone” value (Echinochloa oryzoides; B 75 g a.i./ha) is reported as 44.6%. The “Control effect (%) of B applied alone” value (Echinochloa oryzoides; B 150 g a.i./ha) was 75.2%, the “Control effect (%) of B applied alone” value (Echinochloa caudate; Table 80, 18.75 g a.i./ha) was 4.6% and the “Control effect (%) of B applied alone” value (Echinochloa caudate; Table 80, 37.5 g a.i./ha) was 16.0%. For the same compound, the “Control effect (%) of B applied alone” value (Echinochloa caudate; Table 80, 75 g a.i./ha) was 42.6% and the “Control effect (%) of B applied alone” value (Echinochloa caudate; Table 80, 150 g a.i./ha) was 74.3%.
